Each structure is given as a SMILES string.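 Each compound was tested at five concentrations against cells in 96-well plates for 48 hours. GI50 marks 50% less growth.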 Calls of active or inactive are those of the source. No stated cut-off is given here; in the data, active = GI50 up to about 1.1 µM and inactive = higher.

Test systems include 786-0; COLO 205; DU-145; HCC 2998; HOP-62; HT-29; IGROV-1; K562; MDA-MB-231; Malme-3M; OVCAR-4; OVCAR-8; RXF 393; SF-268; SK-MEL-28; SK-MEL-5; SNB-19; SNB-75; T47D; TK-10.
What all share (assay): DTP human tumour cell line panel, 48 h

For the compound `Cc1cc2cc3c(cc2c(-c2ccc([N+](=O)[O-])cc2)n1)OCO3`, the GI50 – broadly, the concentration that inhibits growth by half – was 23.6 µM (inactive) in the assay on 786-0; 37.7 µM (inactive) in the assay with COLO 205; 62.8 µM (inactive) in the assay on DU-145; 74 µM (inactive) with HCC 2998; 19 µM (inactive) in the assay with HOP-62; 56.8 µM (inactive) in the assay on HT-29. The GI50 was 15.5 µM (inactive) in the assay on IGROV-1; 60.8 µM (inactive) in the assay on K562; 18.6 µM (inactive) in the assay on MDA-MB-231; 61.1 µM (inactive) in the assay on Malme-3M; 17.9 µM (inactive) in the assay on OVCAR-4; 28.5 µM (inactive) in the assay with OVCAR-8. The GI50 was 32.7 µM (inactive) with RXF 393; 34.6 µM (inactive) in the assay with SF-268; 41.1 µM (inactive) in the assay with SK-MEL-28; 17.4 µM (inactive) in the assay with SK-MEL-5; 21.2 µM (inactive) in the assay with SNB-19; 19.7 µM (inactive) in the assay on SNB-75. The GI50 was 34.9 µM (inactive) in the assay with T47D and 43.9 µM (inactive) with TK-10.

With `Fc1cc(C2=C[C@H](c3ccc(Cl)cc3)NC(=S)N2)c(Cl)cc1Cl`, the GI50 in the assay on 786-0 is 47.9 µM (inactive); in the assay with COLO 205, 47 µM (inactive); in the assay with DU-145, 62.8 µM (inactive); with HCC 2998, 23.3 µM (inactive); in the assay on HOP-62, 48.2 µM (inactive); with HT-29 it was 36.5 µM (inactive). The GI50 with IGROV-1 was 41.2 µM (inactive); in the assay on K562, 5.62 µM (inactive); with MDA-MB-231, 23.7 µM (inactive); with Malme-3M, > 100 µM (inactive); in the assay on OVCAR-4 it was 35.7 µM (inactive); in the assay on OVCAR-8, 39.9 µM (inactive). In addition, the GI50 was 31.1 µM (inactive) in the assay on RXF 393; 65.8 µM (inactive) with SF-268; > 100 µM (inactive) in the assay with SK-MEL-28; 11.6 µM (inactive) in the assay with SK-MEL-5; 76.7 µM (inactive) in the assay on SNB-19; 37.6 µM (inactive) in the assay with SNB-75. Also, the GI50 was 19.2 µM (inactive) in the assay on T47D and 45.1 µM (inactive) in the assay on TK-10.

For the compound `C=C[C@@]1(C)CC(=O)[C@]2(O)[C@@]3(C)[C@@H](O)CCC(C)(C)[C@@H]3[C@H](O)[C@@H](OC(C)=O)[C@@]2(C)O1`, the GI50 in the assay with 786-0 was > 100 µM (inactive); in the assay with COLO 205, > 100 µM (inactive); in the assay on DU-145, > 100 µM (inactive); with HCC 2998, > 100 µM (inactive); with HOP-62, > 100 µM (inactive); in the assay on HT-29, 68.7 µM (inactive). The GI50 with IGROV-1 was > 100 µM (inactive); in the assay with K562 it was > 100 µM (inactive); with MDA-MB-231 it was 6.18 µM (inactive); with Malme-3M, > 100 µM (inactive); in the assay with OVCAR-4, > 100 µM (inactive); in the assay on OVCAR-8 it was > 100 µM (inactive). The GI50 was 11.2 µM (inactive) in the assay with RXF 393; > 100 µM (inactive) in the assay with SF-268; > 100 µM (inactive) with SK-MEL-28; > 100 µM (inactive) in the assay on SK-MEL-5; > 100 µM (inactive) in the assay with SNB-19; > 100 µM (inactive) with SNB-75. The GI50 in the assay with T47D is 54.5 µM (inactive); in the assay with TK-10, > 100 µM (inactive).

For `CCOc1ccc(/C=C2\N=C(c3ccc([N+](=O)[O-])cc3)OC2=O)cc1`, the GI50 in the assay with 786-0, in the assay with COLO 205, in the assay with DU-145, in the assay with HCC 2998, in the assay with HOP-62 and with HT-29 was > 100 µM (inactive) throughout. Further, the GI50 in the assay on IGROV-1, in the assay with K562, in the assay with MDA-MB-231, with Malme-3M, in the assay with OVCAR-4 and in the assay on OVCAR-8 was > 100 µM (inactive) in each case. Also, the GI50 with RXF 393, in the assay with SF-268, in the assay on SK-MEL-28, in the assay on SK-MEL-5, with SNB-19 and in the assay with SNB-75 was > 100 µM (inactive) in each case. Besides, the GI50 in the assay on T47D and in the assay on TK-10 was > 100 µM (inactive) throughout.

For `COc1c2ccoc2cc2oc(=O)ccc12` [BERGAPTEN], the GI50 in the assay with 786-0, in the assay with COLO 205, in the assay with DU-145, with HCC 2998, with HOP-62 and in the assay with HT-29 was > 100 µM (inactive) each time. For the same compound, the GI50 with IGROV-1, in the assay on K562, in the assay with MDA-MB-231, with Malme-3M, with OVCAR-4 and in the assay with OVCAR-8 was > 100 µM (inactive) each time. For the same compound, the GI50 in the assay on RXF 393 is > 100 µM (inactive); with SF-268, > 100 µM (inactive); in the assay with SK-MEL-28 it was > 100 µM (inactive); in the assay with SK-MEL-5, > 100 µM (inactive); with SNB-19, > 100 µM (inactive); in the assay on SNB-75 it was 89.1 µM (inactive). In addition, the GI50 in the assay with T47D and in the assay on TK-10 was > 100 µM (inactive) each time.

In the case of `C/C(=N\NC(=[Se])N1CCN(c2ccccn2)CC1)c1ccccn1`, the concentration for 50% growth inhibition (GI50) in the assay with 786-0 was 0.243 µM (active); with COLO 205, 0.01 µM (active); with DU-145, 5.14 µM (inactive); with HCC 2998 it was 11.1 µM (inactive); in the assay on HOP-62, 0.0728 µM (active); with HT-29, 0.01 µM (active). Besides, the GI50 in the assay with IGROV-1 was 0.01 µM (active); with K562, 0.0448 µM (active); with MDA-MB-231, 0.01 µM (active); in the assay with Malme-3M it was 0.297 µM (active); in the assay on OVCAR-4 it was 0.0933 µM (active); in the assay with OVCAR-8, 0.01 µM (active). The GI50 in the assay with RXF 393 was 0.0352 µM (active); with SF-268, 3.21 µM (inactive); in the assay with SK-MEL-28, 10 µM (inactive); in the assay on SK-MEL-5 it was 0.0475 µM (active); in the assay with SNB-19, 1.14 µM (inactive); with SNB-75 it was 4.7 µM (inactive). Moreover, the figures for the GI50 with T47D and in the assay with TK-10 were 0.01 µM (active) and 7.38 µM (inactive), respectively.

Consider `NNC(=O)C1(NC(=O)c2ccccc2)C(c2ccccc2)C(c2ccccc2)=NN1c1ccccc1` (stereo not drawn), for which the GI50 in the assay with 786-0 was 50.5 µM (inactive); with COLO 205, 45.5 µM (inactive); in the assay on DU-145 it was 72.6 µM (inactive); with HCC 2998, 57.1 µM (inactive); in the assay on HOP-62, 34 µM (inactive); in the assay on IGROV-1, 34.9 µM (inactive). In addition, the GI50 in the assay with K562 is 27.2 µM (inactive); with MDA-MB-231 it was 66.8 µM (inactive); with Malme-3M, > 100 µM (inactive); in the assay with OVCAR-4 it was 12.8 µM (inactive); with OVCAR-8, 55.5 µM (inactive); with RXF 393, 14.5 µM (inactive). Further, the GI50 in the assay with SF-268 was 66.7 µM (inactive); with SK-MEL-28 it was 90.4 µM (inactive); in the assay with SK-MEL-5, 30 µM (inactive); in the assay with SNB-19, 66.2 µM (inactive); in the assay on SNB-75, 30.2 µM (inactive); with T47D, 23.1 µM (inactive). Further, in the assay with TK-10, the GI50 is 58.2 µM (inactive).

Consider `Cc1ccc([N+](=O)[O-])cc1S(=O)(=O)Nc1ccc(C2=NOC(c3ccccc3O)C2)cc1` (stereo not drawn), for which the GI50 in the assay on 786-0 was 8.65 µM (inactive); in the assay with COLO 205, 3.54 µM (inactive); in the assay with DU-145, 13.3 µM (inactive); in the assay with HCC 2998, 7.01 µM (inactive); in the assay on HOP-62 it was 5.12 µM (inactive); with HT-29, 4.61 µM (inactive). Further, the GI50 is 7.43 µM (inactive) in the assay on IGROV-1; 2.25 µM (inactive) in the assay on K562; 4.5 µM (inactive) in the assay on MDA-MB-231; 3.95 µM (inactive) with Malme-3M; 3 µM (inactive) in the assay on OVCAR-4; 31.2 µM (inactive) with OVCAR-8. The GI50 with RXF 393 was 2.26 µM (inactive); in the assay with SF-268 it was 8.61 µM (inactive); in the assay on SK-MEL-28 it was 12.8 µM (inactive); with SK-MEL-5, 4.68 µM (inactive); in the assay on SNB-19, 3.31 µM (inactive); in the assay on SNB-75, 3.6 µM (inactive). Further, the GI50 in the assay on T47D was 6 µM (inactive); in the assay on TK-10, 18.3 µM (inactive).

In the case of `O=C(Nc1cccc(-c2cn3ccccc3n2)c1)c1ccncc1`, the GI50 was 64.4 µM (inactive) with 786-0; 31.3 µM (inactive) in the assay on COLO 205; 49.4 µM (inactive) in the assay with DU-145; 56.2 µM (inactive) with HCC 2998; 33.2 µM (inactive) with HOP-62; 35.8 µM (inactive) with HT-29. The GI50 was 40.9 µM (inactive) with IGROV-1; 24.6 µM (inactive) in the assay with K562; 32 µM (inactive) in the assay with MDA-MB-231; 29.3 µM (inactive) in the assay with Malme-3M; 34.7 µM (inactive) in the assay on OVCAR-4; 34 µM (inactive) in the assay on OVCAR-8. Further, the GI50 in the assay on RXF 393 was 64.4 µM (inactive); in the assay on SF-268, 41.4 µM (inactive); with SK-MEL-28, 48.5 µM (inactive); with SK-MEL-5, 24.3 µM (inactive); in the assay on SNB-19 it was 99.3 µM (inactive); in the assay on SNB-75 it was 46.1 µM (inactive). The GI50 in the assay on T47D was 19.2 µM (inactive); in the assay with TK-10 it was 56.9 µM (inactive).

Regarding `CS(=O)(=O)Nc1ccc2c(c1)N(S(C)(=O)=O)CC2CCl` (stereo not drawn), the GI50 in the assay with 786-0, in the assay with COLO 205, with DU-145, in the assay on HCC 2998, with HOP-62 and in the assay with HT-29 was > 100 µM (inactive) throughout. For the same compound, the GI50 with IGROV-1, in the assay on K562, in the assay with MDA-MB-231, with Malme-3M, in the assay with OVCAR-4 and in the assay with OVCAR-8 was > 100 µM (inactive) throughout. For the same compound, the GI50 in the assay on RXF 393, in the assay with SF-268, in the assay on SK-MEL-28, in the assay on SK-MEL-5, in the assay on SNB-75 and in the assay with T47D was > 100 µM (inactive) throughout. In the assay on TK-10, the GI50 is > 100 µM (inactive).

The record behind these values is ChEMBL document CHEMBL1201862, “PubChem BioAssay data set” (2004).
